Laboratory results from US12421205B2, “GLP-1 receptor agonist” (HYUNDAI PHARM CO., LTD., priority 2019, dated 2025).

How the values were obtained:
human GLP-1 receptor = target: T1, human GLP-1 receptor (Homo sapiens, UniProt P43220); assay: cAMP activity test (cAMP dynamic HTRF kit) in CHO-K1/GLP-1 receptor-expressing cells; type: cell-based; details: cAMP activity, CHO-K1/GLP-1 receptor-expressing cells; read-out: EC50
T1 construct: host or cells: CHO-K1
Description: The next day, the medium was removed, and a 50 uL of HBSS medium containing 0.1% BSA, 0.5 mM IBMX, and 5 mM HEPES was added to each well. […] The cAMP activity was measured according to the manufacturer's instructions using the cAMP dynamic HTRF kit (Cisbio, 62AM4PEC). After incubation, the medium was discarded, and the cells were lysed. cAMP-d2 and anti-cAMP cryptate conjugate were added thereto and reacted for 3 hours. […] Intracellular cAMP competes with cAMP-d2 for anti-cAMP cryptate, and the measured signal of fluorescence resonance energy transfer (FRET) is inversely proportional to intracellular cAMP.

hERG = target: T2, hERG (Homo sapiens, UniProt Q12809); assay: hERG inhibition test (Predictor hERG Fluorescence Polarization assay kit); type: binding; details: probe kit Tracer (fluorescent hERG ligand), hERG % inhibition at 10 uM, relative to E-4031 and solvent control
T2 construct: purchased Invitrogen PV5365
T2 sequence (Q12809 whole entry): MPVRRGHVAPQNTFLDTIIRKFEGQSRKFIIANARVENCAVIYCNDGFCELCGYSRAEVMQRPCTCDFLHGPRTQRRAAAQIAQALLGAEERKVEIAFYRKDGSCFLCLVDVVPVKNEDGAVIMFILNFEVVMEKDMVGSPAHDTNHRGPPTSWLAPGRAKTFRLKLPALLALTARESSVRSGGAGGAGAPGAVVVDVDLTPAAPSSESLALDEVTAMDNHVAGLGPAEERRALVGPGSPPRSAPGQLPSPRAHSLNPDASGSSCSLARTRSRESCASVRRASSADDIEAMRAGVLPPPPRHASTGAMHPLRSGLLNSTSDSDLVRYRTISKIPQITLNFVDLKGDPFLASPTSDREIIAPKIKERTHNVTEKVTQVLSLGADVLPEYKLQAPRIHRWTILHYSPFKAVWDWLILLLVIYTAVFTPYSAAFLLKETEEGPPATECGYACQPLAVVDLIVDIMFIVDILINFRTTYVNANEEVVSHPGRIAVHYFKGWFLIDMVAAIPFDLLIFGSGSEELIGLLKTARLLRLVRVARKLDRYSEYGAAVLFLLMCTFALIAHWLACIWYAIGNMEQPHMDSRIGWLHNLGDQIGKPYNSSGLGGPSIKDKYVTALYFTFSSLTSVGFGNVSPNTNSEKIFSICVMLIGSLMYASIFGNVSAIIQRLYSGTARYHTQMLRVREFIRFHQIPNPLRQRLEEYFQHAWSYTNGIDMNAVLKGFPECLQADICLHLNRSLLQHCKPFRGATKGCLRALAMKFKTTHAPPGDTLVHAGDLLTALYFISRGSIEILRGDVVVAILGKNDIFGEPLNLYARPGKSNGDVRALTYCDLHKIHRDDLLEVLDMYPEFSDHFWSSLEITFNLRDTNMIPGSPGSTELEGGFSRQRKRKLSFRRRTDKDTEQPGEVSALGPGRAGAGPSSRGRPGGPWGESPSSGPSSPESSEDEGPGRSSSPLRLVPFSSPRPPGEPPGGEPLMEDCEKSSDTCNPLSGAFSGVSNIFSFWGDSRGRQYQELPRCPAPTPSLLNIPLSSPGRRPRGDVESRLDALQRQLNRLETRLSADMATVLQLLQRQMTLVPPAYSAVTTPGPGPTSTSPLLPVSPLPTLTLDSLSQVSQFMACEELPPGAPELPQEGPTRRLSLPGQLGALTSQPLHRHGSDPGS
Description: To measure the hERG (Human ether-a-go-go-related gene) channel inhibition rate of the compound according to the present invention, the following test was performed using a Predictor hERG Fluorescence Polarization assay kit (Invitrogen, PV5365).
Specifically, a test substance was dissolved in DMSO to prepare a 50 mM solution. A 4 mM solution was prepared by diluting the 50 mM solution with DMSO in a U bottom 96-well plate (SPL, 34096), and was then diluted 100-fold with a test buffer to prepare a 40 uM (4×) solution. The positive control E-4031 (3 mM) provided in the kit was diluted 25-fold with a test buffer to prepare a 120 uM solution) 5 uL of the diluted test substance solution was dispensed into a 384-well assay plate (corning, 3677). hERG Membrane (2×) and Tracer (4×) provided in the kit were respectively added at 10 uL and 5 uL, and then subjected to the reaction at room temperature for 2.5 hours. After completion of the reaction, fluorescence polarization (mP) was measured with a Multimode Plate Reader (Perkin-Elmer, Envision) (excitation wavelength of 531 nm, and emission wavelength 579 nm). The value of the percent inhibitory activity (% inhibition) at 10 uM of each test substance was calculated by the following equation, and the results are shown in Table 2: (% inhibition)=100−{(mP of the compound according to the present invention−E-4031 mP)/(mP of the solvent control−E-4031 mP)}×100

T1 sequence (P43220 24-463): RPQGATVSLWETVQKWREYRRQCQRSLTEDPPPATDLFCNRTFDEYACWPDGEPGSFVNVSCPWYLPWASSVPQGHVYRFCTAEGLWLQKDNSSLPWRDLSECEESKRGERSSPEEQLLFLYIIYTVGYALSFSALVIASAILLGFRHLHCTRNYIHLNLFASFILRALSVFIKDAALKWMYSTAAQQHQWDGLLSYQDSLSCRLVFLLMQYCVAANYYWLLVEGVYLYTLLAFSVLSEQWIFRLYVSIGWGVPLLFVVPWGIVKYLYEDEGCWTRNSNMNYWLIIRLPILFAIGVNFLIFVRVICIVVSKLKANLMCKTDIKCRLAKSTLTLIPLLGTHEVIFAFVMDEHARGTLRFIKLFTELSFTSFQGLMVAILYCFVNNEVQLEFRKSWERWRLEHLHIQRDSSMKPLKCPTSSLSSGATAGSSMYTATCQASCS

Row | EC50 (human GLP-1 receptor) | SMILES | inhibition at 2.5 h, 10 µM (hERG)
1 | 510 nM | O=C(O)c1ccc2nc(Cc3ccc(-c4cccc(OCc5c(F)cccc5Cl)n4)c(F)c3)n(C[C@@H]3CCO3)c2c1 [Example 126, (S)-2-(4-(6-((2-chloro-6-fluorobenzyl)oxy)pyridin-2-yl)-3-fluorobenzyl)-1-(oxetan-2-ylmethyl)-1H-benzo[d]imidazole-6-carboxylic acid] | -3.99%
2 | 4.3 nM | N#Cc1ccc(COc2cccc(-c3ccc(Cc4nc5ccc(C(=O)O)cc5n4C[C@@H]4CCO4)cc3F)n2)cc1 [Example 118, (S)-2-(4-(6-((4-cyanobenzyl)oxy)pyridin-2-yl)-3-fluorobenzyl)-1-(oxetan-2-ylmethyl)-1H-benzo[d]imidazole-6-carboxylic acid] | 20.7%
3 | < 3.2 nM | O=C(O)c1ccc2nc(Cc3cc(F)c(-c4cccc(OCc5ccc(Cl)cc5F)n4)cc3F)n(C[C@@H]3CCCO3)c2c1 [Example 116, (S)-2-(4-(6-((4-chloro-2-fluorobenzyl)oxy)pyridin-2-yl)-2,5-difluorobenzyl)-1-((tetrahydrofuran-2-yl)methyl)-1H-benzo[d]imidazole-6-carboxylic acid] | 5.86%
4 | 4.6 nM | N#Cc1ccc(COc2cccc(-c3ccc(Cc4nc5ccc(C(=O)O)cc5n4C[C@@H]4CCCO4)c(F)c3)n2)c(F)c1 [Example 66, (S)-2-(4-(6-(4-cyano-2-fluorobenzyloxy)pyridin-2-yl)-2-fluorobenzyl)-1-((tetrahydrofuran-2-yl)methyl)-1H-benzo[d]imidazole-6-carboxylic acid] | -7.97%
5 | 85 nM | O=C(O)c1ccc2nc(Cc3ccc(-c4cccc(OCc5ccc(Cl)cc5F)n4)cc3)n(Cc3ccco3)c2c1 [Example 12, 2-(4-(6-(4-chloro-2-fluorobenzyloxy)pyridin-2-yl)benzyl)-1-(furan-2-ylmethyl)-1H-benzo[d]imidazole-6-carboxylic acid] | -2.74%
6 | 38 nM | Cc1ccc(COc2cccc(-c3ccc(Cc4nc5ccc(C(=O)O)cc5n4CC4CCCO4)c(F)c3)n2)cc1 (centres unmarked) [Example 76, 2-(2-fluoro-4-(6-(4-methylbenzyloxy)pyridin-2-yl)benzyl)-1-((tetrahydrofuran-2-yl)methyl)-1H-benzo[d]imidazole-6-carboxylic acid] | -0.5%
7 | 110 nM | COc1cc(-c2cccc(OCc3ccc(C#N)cc3F)n2)ccc1Cc1nc2ccc(C(=O)O)cc2n1CC1CCCO1 (centres unmarked) [Example 64, 2-(4-(6-(4-cyano-2-fluorobenzyloxy)pyridin-2-yl)-2-methoxybenzyl)-1-((tetrahydrofuran-2-yl)methyl)-1H-benzo[d]imidazole-6-carboxylic acid] | -9.05%

The next lines start with the compound.

Row | SMILES | EC50 (human GLP-1 receptor) | inhibition at 2.5 h, 10 µM (hERG)
8 | COCCn1c(Cc2ccc(-c3cccc(OCc4ccc(Cl)cc4F)c3)c(F)c2)nc2ccc(C(=O)O)cc21 [Example 39, 2-((3′-(4-chloro-2-fluorobenzyloxy)-2-fluorobiphenyl-4-yl)methyl)-1-(2-methoxyethyl)-1H-benzo[d]imidazole-6-carboxylic acid] | 250 nM | -12.8%
9 | O=C(O)c1ccc2nc(Cc3ccc(-c4cccc(OCc5ccc(Cl)c(F)c5)n4)c(F)c3)n(CC3CCCO3)c2c1 (centres unmarked) [Example 99, 2-(4-(6-(4-chloro-3-fluorobenzyloxy)pyridin-2-yl)-3-fluorobenzyl)-1-((tetrahydrofuran-2-yl)methyl)-1H-benzo[d]imidazole-6-carboxylic acid] | 70 nM | -0.33%
10 | COCCn1c(Cc2ccc(-c3cccc(COc4ccc(Cl)cc4F)n3)cc2[N+](=O)[O-])nc2ccc(C(=O)O)cc21 [Example 7, 2-(4-(6-((4-chloro-2-fluorophenoxy)methyl)pyridin-2-yl)-2-nitrobenzyl)-1-(2-methoxyethyl)-1H-benzo[d]imidazole-6-carboxylic acid] | 2000 nM | 1.63%
11 | N#Cc1ccc(COc2cccc(-c3ccn(Cc4nc5ccc(C(=O)O)cc5n4C[C@@H]4CCO4)c(=O)c3)n2)c(F)c1 [Example 111, (S)-2-((4-(6-(4-cyano-2-fluorobenzyloxy)pyridin-2-yl)-2-oxopyridin-1(2H)-yl)methyl)-1-(oxetan-2-ylmethyl)-1H-benzo[d]imidazole-6-carboxylic acid] | 20 nM | 1.32%
12 | Cc1cc(Cc2nc3ccc(C(=O)O)cc3n2Cc2ccco2)ccc1-c1cccc(OCc2ccc(C#N)cc2F)c1 [Example 29, 2-((3′-(4-cyano-2-fluorobenzyloxy)-2-methylbiphenyl-4-yl)methyl)-1-(furan-2-ylmethyl)-1H-benzo[d]imidazole-6-carboxylic acid] | 900 nM | -0.75%
13 | O=C(O)c1ccc2nc(Cc3ccc(-c4cccc(OCc5ccc(Cl)cc5F)c4)cc3F)n(C[C@H]3CCCO3)c2c1 [Example 41, (R)-2-((3′-(4-chloro-2-fluorobenzyloxy)-3-fluorobiphenyl-4-yl)methyl)-1-((tetrahydrofuran-2-yl)methyl)-1H-benzo[d]imidazole-6-carboxylic acid] | 110 nM | -16%
14 | O=C(O)c1ccc2nc(Cc3ccc(-c4ccc(F)c(OCc5ccc(Cl)cc5F)c4)cn3)n(CC3CCCO3)c2c1 (centres unmarked) [Example 102, 2-((5-(3-(4-chloro-2-fluorobenzyloxy)-4-fluorophenyl)pyridin-2-yl)methyl)-1-((tetrahydrofuran-2-yl)methyl)-1H-benzo[d]imidazole-6-carboxylic acid] | 460 nM | -31.9%
15 | O=C(O)c1ccc2nc(Cc3ccc(-c4cccc(OCc5ccc(Cl)cc5F)c4)cc3F)n(CC3CCCO3)c2c1 (centres unmarked) [Example 16, 2-((3′-(4-chloro-2-fluorobenzyloxy)-3-fluorobiphenyl-4-yl)methyl)-1-((tetrahydrofuran-2-yl)methyl)-1H-benzo[d]imidazole-6-carboxylic acid] | 82 nM | -0.94%
16 | O=C(O)c1ccc2nc(Cc3ccc(-c4cccc(OCc5ccc(Cl)cc5F)n4)c(F)c3F)n(C[C@@H]3CCO3)c2c1 [Example 82, (S)-2-(4-(6-(4-chloro-2-fluorobenzyloxy)pyridin-2-yl)-2,3-difluorobenzyl)-1-(oxetan-2-ylmethyl)-1H-benzo[d]imidazole-6-carboxylic acid] | 4 nM | 7.24%
17 | N#Cc1ccc(COc2cc(-c3ccc(Cc4nc5ccc(C(=O)O)cc5n4CC4CCCO4)cc3F)ccc2F)c(F)c1 (centres unmarked) [Example 93, 2-((3′-(4-cyano-2-fluorobenzyloxy)-2,4′-difluorobiphenyl-4-yl)methyl)-1-((tetrahydrofuran-2-yl)methyl)-1H-benzo[d]imidazole-6-carboxylic acid] | 1100 nM | 8.9%
18 | O=C(O)c1ccc2nc(Cn3ccc(-c4cccc(OCc5ccc(Cl)cc5F)n4)cc3=O)n(CC3CCCO3)c2c1 (centres unmarked) [Example 105, 2-((4-(6-(4-chloro-2-fluorobenzyloxy)pyridin-2-yl)-2-oxopyridin-1(2H)-yl)methyl)-1-((tetrahydrofuran-2-yl)methyl)-1H-benzo[d]imidazole-6-carboxylic acid] | 46 nM | 25.1%
19 | O=C(O)c1ccc2nc(Cn3ccc(-c4cccc(OCc5ccc(Cl)cc5F)n4)cc3=O)n(C[C@@H]3CCO3)c2c1 [Example 110, (S)-2-((6-((4-chloro-2-fluorobenzyl)oxy)-2′-oxo-[2,4′-bipyridin]-1′(2′H)-yl)methyl)-1-(oxetan-2-ylmethyl)-1H-benzo[d]imidazole-6-carboxylic acid] | 16 nM | 7.61%
20 | O=C(O)c1ccc2nc(Cc3ccc(-c4cccc(OCc5ccc(Cl)cc5F)n4)cc3F)n(Cc3cnco3)c2c1 [Example 34, 2-(4-(6-(4-chloro-2-fluorobenzyloxy)pyridin-2-yl)-2-fluorobenzyl)-1-(oxazol-5-ylmethyl)-1H-benzo[d]imidazole-6-carboxylic acid] | 9.2 nM | -12.6%
21 | O=C(O)c1ccc2nc(Cc3ccc(-c4cccc(OCc5ccc(Cl)cc5F)n4)cc3F)n(C[C@H]3CCCO3)c2c1 [Example 51, (R)-2-(4-(6-(4-chloro-2-fluorobenzyloxy)pyridin-2-yl)-2-fluorobenzyl)-1-((tetrahydrofuran-2-yl)methyl)-1H-benzo[d]imidazole-6-carboxylic acid] | 52 nM | -4.69%
22 | O=C(O)c1ccc2nc(Cc3ccc(-c4cccc(OCc5c(F)cccc5Cl)n4)c(F)c3)n(CC3CCCO3)c2c1 (centres unmarked) [Example 101, 2-(4-(6-(2-chloro-6-fluorobenzyloxy)pyridin-2-yl)-3-fluorobenzyl)-1-((tetrahydrofuran-2-yl)methyl)-1H-benzo[d]imidazole-6-carboxylic acid] | 320 nM | -2.37%
